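Protocol summary: plate cells (96-well), add compound at 5 concentrations, incubate 48 h, interpolate endpoints linearly. The concentration for 50% growth inhibition is given as GI50. TGI: concentration producing complete growth inhibition.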
Experiments:
Test in all cases: NCI anticancer screen, dose series, 48 h; in the data active = GI50 below about 0.43 µM; inactive = the rest
OVCAR-4 ovarian = system: OVCAR-4 ovarian
TK-10 renal = system: TK-10 renal
786-0 renal = system: 786-0 renal
NCI-H23 lung = system: NCI-H23 lung
SR leukemia = system: SR leukemia
HT29 colon = system: HT29 colon
HOP-92 NSCLC = system: HOP-92 NSCLC
NCI-H226 lung = system: NCI-H226 lung
MDA-MB-231 breast = system: MDA-MB-231 breast
SNB-19 CNS = system: SNB-19 CNS
SK-MEL-28 melanoma = system: SK-MEL-28 melanoma
M14 melanoma = system: M14 melanoma
RPMI-8226 leukemia = system: RPMI-8226 leukemia
COLO 205 colon = system: COLO 205 colon
ACHN renal = system: ACHN renal
HCT-15 colon = system: HCT-15 colon
HL-60(TB) leukemia = system: HL-60(TB) leukemia
LOX IMVI melanoma = system: LOX IMVI melanoma
HCC-2998 colon = system: HCC-2998 colon
SW-620 colon = system: SW-620 colon
CAKI-1 renal = system: CAKI-1 renal
BT-549 breast = system: BT-549 breast
A549 NSCLC = system: A549 NSCLC
MALME-3M melanoma = system: MALME-3M melanoma
KM12 colon = system: KM12 colon
IGROV1 ovarian = system: IGROV1 ovarian
NCI-H522 lung = system: NCI-H522 lung
OVCAR-8 ovarian = system: OVCAR-8 ovarian
SF-268 CNS = system: SF-268 CNS
HCT-116 colon = system: HCT-116 colon
K-562 leukemia = system: K-562 leukemia
MDA-MB-435 = system: MDA-MB-435
MOLT-4 leukemia = system: MOLT-4 leukemia
U251 CNS = system: U251 CNS
PC-3 prostate = system: PC-3 prostate
SK-MEL-2 melanoma = system: SK-MEL-2 melanoma
NCI-H460 lung = system: NCI-H460 lung
SK-MEL-5 melanoma = system: SK-MEL-5 melanoma
SF-539 CNS = system: SF-539 CNS
UO-31 renal = system: UO-31 renal
SN12C renal = system: SN12C renal
UACC-62 melanoma = system: UACC-62 melanoma
SNB-75 CNS = system: SNB-75 CNS
NCI/ADR-RES ovarian = system: NCI/ADR-RES ovarian
EKVX NSCLC = system: EKVX NSCLC
HOP-62 NSCLC = system: HOP-62 NSCLC
SK-OV-3 ovarian = system: SK-OV-3 ovarian
OVCAR-5 ovarian = system: OVCAR-5 ovarian
CCRF-CEM leukemia = system: CCRF-CEM leukemia
MCF7 breast = system: MCF7 breast
HS 578T breast = system: HS 578T breast
UACC-257 melanoma = system: UACC-257 melanoma
OVCAR-3 ovarian = system: OVCAR-3 ovarian
SF-295 CNS = system: SF-295 CNS
A498 renal = system: A498 renal
DU-145 prostate = system: DU-145 prostate

CCN1C(=O)N(CC)C2SC(N/N=C/c3ccc(F)cc3)=NC21 (centres undefined)
860 nM: TGI (A498 renal)
inactive: GI50 (OVCAR-4 ovarian) 22400 nM | GI50 (TK-10 renal) 5200 nM | GI50 (786-0 renal) 628 nM | GI50 (NCI-H23 lung) 539 nM | GI50 (HOP-92 NSCLC) 1160 nM | GI50 (NCI-H226 lung) 942 nM | GI50 (MDA-MB-231 breast) 955 nM | GI50 (SNB-19 CNS) 504 nM | GI50 (SK-MEL-28 melanoma) > 30000 nM | GI50 (ACHN renal) 728 nM | GI50 (HCT-15 colon) 429 nM | GI50 (LOX IMVI melanoma) 596 nM | GI50 (HCC-2998 colon) 823 nM | GI50 (CAKI-1 renal) 435 nM | GI50 (BT-549 breast) 496 nM | GI50 (A549 NSCLC) 611 nM | GI50 (MALME-3M melanoma) 660 nM | GI50 (IGROV1 ovarian) 765 nM | GI50 (OVCAR-8 ovarian) 495 nM | GI50 (SF-268 CNS) 2620 nM | GI50 (MOLT-4 leukemia) 479 nM | GI50 (PC-3 prostate) 436 nM | GI50 (SK-MEL-2 melanoma) 507 nM | GI50 (SK-MEL-5 melanoma) 601 nM | GI50 (UO-31 renal) 631 nM | GI50 (SN12C renal) 617 nM | GI50 (UACC-62 melanoma) 437 nM | GI50 (NCI/ADR-RES ovarian) 428 nM | GI50 (EKVX NSCLC) 695 nM | GI50 (HOP-62 NSCLC) 556 nM | GI50 (SK-OV-3 ovarian) 662 nM | GI50 (OVCAR-5 ovarian) 890 nM | GI50 (UACC-257 melanoma) 1260 nM | GI50 (DU-145 prostate) 498 nM
> 52300 nM: TGI (PC-3 prostate)
4460 nM: TGI (HT29 colon)
762 nM: TGI (NCI-H522 lung)
> 24000 nM: TGI (OVCAR-8 ovarian)
> 74300 nM: TGI (U251 CNS)
1430 nM: TGI (SF-539 CNS)
2870 nM: TGI (BT-549 breast)
14400 nM: TGI (M14 melanoma)
1100 nM: TGI (COLO 205 colon)
927 nM: TGI (HL-60(TB) leukemia)
active: GI50 (SR leukemia) 221 nM | GI50 (HT29 colon) 354 nM | GI50 (M14 melanoma) 296 nM | GI50 (RPMI-8226 leukemia) 373 nM | GI50 (COLO 205 colon) 308 nM | GI50 (HL-60(TB) leukemia) 268 nM | GI50 (SW-620 colon) 374 nM | GI50 (KM12 colon) 415 nM | GI50 (NCI-H522 lung) 250 nM | GI50 (HCT-116 colon) 404 nM | GI50 (K-562 leukemia) 361 nM | GI50 (MDA-MB-435) 174 nM | GI50 (U251 CNS) 406 nM | GI50 (NCI-H460 lung) 362 nM | GI50 (SF-539 CNS) 321 nM | GI50 (SNB-75 CNS) 252 nM | GI50 (CCRF-CEM leukemia) 413 nM | GI50 (MCF7 breast) 369 nM | GI50 (HS 578T breast) 363 nM | GI50 (OVCAR-3 ovarian) 370 nM | GI50 (SF-295 CNS) 348 nM | GI50 (A498 renal) 295 nM
30100 nM: TGI (786-0 renal)
> 62200 nM: TGI (KM12 colon)
> 23300 nM: TGI (HOP-92 NSCLC)
> 100000 nM: TGI (OVCAR-4 ovarian) | TGI (TK-10 renal) | TGI (NCI-H23 lung) | TGI (SR leukemia) | TGI (NCI-H226 lung) | TGI (MDA-MB-231 breast) | TGI (SNB-19 CNS) | TGI (SK-MEL-28 melanoma) | TGI (RPMI-8226 leukemia) | TGI (ACHN renal) | TGI (HCT-15 colon) | TGI (LOX IMVI melanoma) | TGI (HCC-2998 colon) | TGI (SW-620 colon) | TGI (CAKI-1 renal) | TGI (A549 NSCLC) | TGI (MALME-3M melanoma) | TGI (IGROV1 ovarian) | TGI (SF-268 CNS) | TGI (K-562 leukemia) | TGI (MOLT-4 leukemia) | TGI (SK-MEL-2 melanoma) | TGI (UO-31 renal) | TGI (SN12C renal) | TGI (UACC-62 melanoma) | TGI (NCI/ADR-RES ovarian) | TGI (EKVX NSCLC) | TGI (HOP-62 NSCLC) | TGI (SK-OV-3 ovarian) | TGI (OVCAR-5 ovarian) | TGI (CCRF-CEM leukemia) | TGI (MCF7 breast) | TGI (UACC-257 melanoma) | TGI (SF-295 CNS) | TGI (DU-145 prostate)
408 nM: TGI (MDA-MB-435)
2040 nM: TGI (OVCAR-3 ovarian)
> 42200 nM: TGI (SK-MEL-5 melanoma)
> 33900 nM: TGI (HCT-116 colon)

— PubChem BioAssay (NCI)
